Results as given in US9663508B2, “Biaryl acyl-sulfonamide compounds as sodium channel inhibitors” (AMGEN INC., priority 2013, dated 2017).

Target: human Nav1.7 (Homo sapiens (Human), UniProt Q15858)
Experiment: Nav 1.7 in vitro PatchXpress (PX) assay
Format: cell-based
Conditions: not given

Sequence of human Nav1.7 (Q15858 whole entry): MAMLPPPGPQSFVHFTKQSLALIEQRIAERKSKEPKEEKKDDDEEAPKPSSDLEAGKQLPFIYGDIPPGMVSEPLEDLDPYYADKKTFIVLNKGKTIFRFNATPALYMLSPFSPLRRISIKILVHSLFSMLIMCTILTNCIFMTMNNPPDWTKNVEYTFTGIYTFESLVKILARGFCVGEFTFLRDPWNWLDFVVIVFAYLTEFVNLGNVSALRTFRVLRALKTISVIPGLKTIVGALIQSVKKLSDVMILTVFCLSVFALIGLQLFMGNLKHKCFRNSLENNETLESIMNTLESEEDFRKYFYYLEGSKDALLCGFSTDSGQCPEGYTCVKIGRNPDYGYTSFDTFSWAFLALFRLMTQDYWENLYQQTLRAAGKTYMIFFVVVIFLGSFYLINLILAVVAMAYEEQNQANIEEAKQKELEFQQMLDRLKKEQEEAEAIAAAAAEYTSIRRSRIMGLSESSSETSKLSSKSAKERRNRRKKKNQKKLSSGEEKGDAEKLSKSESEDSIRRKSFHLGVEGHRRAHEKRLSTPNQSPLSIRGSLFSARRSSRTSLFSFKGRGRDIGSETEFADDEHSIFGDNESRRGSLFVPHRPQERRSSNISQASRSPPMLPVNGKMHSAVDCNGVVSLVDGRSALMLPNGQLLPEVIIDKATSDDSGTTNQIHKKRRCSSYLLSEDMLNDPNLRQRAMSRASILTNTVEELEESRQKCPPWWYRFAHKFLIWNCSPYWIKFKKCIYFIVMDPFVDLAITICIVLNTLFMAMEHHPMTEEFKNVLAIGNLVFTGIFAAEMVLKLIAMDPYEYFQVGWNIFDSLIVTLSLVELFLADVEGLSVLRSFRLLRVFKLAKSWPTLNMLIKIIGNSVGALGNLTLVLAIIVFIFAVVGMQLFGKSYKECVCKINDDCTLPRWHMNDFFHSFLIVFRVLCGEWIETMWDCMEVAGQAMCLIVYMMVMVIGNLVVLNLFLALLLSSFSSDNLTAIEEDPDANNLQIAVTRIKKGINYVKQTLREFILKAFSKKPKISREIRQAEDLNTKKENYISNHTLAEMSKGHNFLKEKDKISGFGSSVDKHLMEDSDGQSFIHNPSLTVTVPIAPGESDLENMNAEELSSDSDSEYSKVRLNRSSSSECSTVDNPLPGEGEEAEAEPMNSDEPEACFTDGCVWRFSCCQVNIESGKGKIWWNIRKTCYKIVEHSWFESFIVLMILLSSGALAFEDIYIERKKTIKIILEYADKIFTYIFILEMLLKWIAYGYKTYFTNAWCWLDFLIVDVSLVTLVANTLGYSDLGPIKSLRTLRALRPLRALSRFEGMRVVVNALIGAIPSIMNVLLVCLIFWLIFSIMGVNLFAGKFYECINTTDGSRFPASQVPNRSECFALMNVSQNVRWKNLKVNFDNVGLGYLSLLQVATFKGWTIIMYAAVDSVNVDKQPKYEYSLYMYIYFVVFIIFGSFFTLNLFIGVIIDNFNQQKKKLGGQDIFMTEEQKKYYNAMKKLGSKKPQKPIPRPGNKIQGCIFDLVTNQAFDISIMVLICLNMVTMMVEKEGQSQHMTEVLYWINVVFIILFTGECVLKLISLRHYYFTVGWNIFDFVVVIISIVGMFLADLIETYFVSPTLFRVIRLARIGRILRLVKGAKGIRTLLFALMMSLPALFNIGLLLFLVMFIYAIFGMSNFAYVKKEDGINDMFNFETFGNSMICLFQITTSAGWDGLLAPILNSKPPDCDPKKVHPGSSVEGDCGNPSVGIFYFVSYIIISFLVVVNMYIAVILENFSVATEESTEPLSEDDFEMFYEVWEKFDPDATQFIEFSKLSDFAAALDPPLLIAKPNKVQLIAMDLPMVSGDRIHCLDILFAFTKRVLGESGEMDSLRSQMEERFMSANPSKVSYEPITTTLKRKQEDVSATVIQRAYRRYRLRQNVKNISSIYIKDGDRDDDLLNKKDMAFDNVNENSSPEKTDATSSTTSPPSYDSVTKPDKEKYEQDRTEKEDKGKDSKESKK

Row | Compound | IC50 [nM]
1 | COc1cc(C(=O)NS(C)(=O)=O)ccc1-c1cnc(Oc2ccc(Cl)cc2F)c(Cl)c1 [Example 376, 4-(5-chloro-6-(4-chloro-2-fluorophenoxy)-3-pyridinyl)-3-methoxy-N-(methylsulfonyl)benzamide] | 60.3
2 | CC[C@@H](Oc1ncc(-c2cc(F)c(C(=O)NS(C)(=O)=O)cc2C)cc1Cl)c1ccc(C)cc1 [Example 685, 4-(5-chloro-6-(((1R)-1-(4-methylphenyl)propyl)oxy)-3-pyridinyl)-2-fluoro-5-methyl-N-(methylsulfonyl)benzamide, 4-(5-chloro-6-(((1S)-1-(4-methylphenyl)propyl)oxy)-3-pyridinyl)-2-fluoro-5-methyl-N-(methylsulfonyl)benzamide] | 88.1
3 | Cc1cc(C(=O)NS(C)(=O)=O)c(F)cc1-c1cnc(Oc2ccc(C(F)(F)F)c(F)c2)c(Cl)c1 [Example 671, 4-(5-chloro-6-(3-fluoro-4-(trifluoromethyl)phenoxy)-3-pyridinyl)-2-fluoro-5-methyl-N-(methylsulfonyl)benzamide] | 123
4 | COc1ccc(Oc2ncc(-c3ccc(C(=O)NS(C)(=O)=O)cc3OC)cc2Cl)c(Cl)c1 [Example 365, 4-(5-chloro-6-(2-chloro-4-methoxyphenoxy)-3-pyridinyl)-3-methoxy-N-(methylsulfonyl)benzamide] | 91.4
5 | CS(=O)(=O)NC(=O)c1ccc(-c2cnc(Oc3ccc(Cl)cc3)c(Cl)c2)c(OC(F)F)c1 [Example 466, 4-(5-chloro-6-(4-chlorophenoxy)-3-pyridinyl)-3-(difluoromethoxy)-N-(methylsulfonyl)benzamide] | 68.8
6 | COc1cc(C(=O)NS(C)(=O)=O)ccc1-c1cnc(Oc2cc(F)ccc2Cl)c(Cl)c1 [Example 371, 4-(5-chloro-6-(2-chloro-5-fluorophenoxy)-3-pyridinyl)-3-methoxy-N-(methylsulfonyl)benzamide] | 80
7 | CS(=O)(=O)NC(=O)c1cc(Cl)c(-c2cnc(OCC3CCCC3)c(Cl)c2)cc1F [Example 600, 5-chloro-4-(5-chloro-6-(cyclopentylmethoxy)-3-pyridinyl)-2-fluoro-N-(methylsulfonyl)benzamide] | 91.9
8 | COc1cc(C(=O)NS(C)(=O)=O)ccc1-c1cnc(Oc2cccc(Cl)c2C)c(C#N)c1 [Example 690, 4-(6-(3-chloro-2-methylphenoxy)-5-cyano-3-pyridinyl)-3-methoxy-N-(methylsulfonyl)benzamide] | 46.9
9 | Cc1ccc(Cl)cc1Oc1ncc(-c2cc(F)c(C(=O)NS(C)(=O)=O)cc2F)cc1Cl [Example 571, 4-(5-chloro-6-(5-chloro-2-methylphenoxy)-3-pyridinyl)-2,5-difluoro-N-(methylsulfonyl)benzamide] | 99.2
10 | CC[C@@H](Oc1ncc(-c2cc(F)c(C(=O)NS(C)(=O)=O)cc2C)cc1Cl)c1ccc(F)cc1 [Example 639, 4-(5-chloro-6-(((1R)-1-(4-fluorophenyl)propyl)oxy)-3-pyridinyl)-2-fluoro-5-methyl-N-(methylsulfonyl)benzamide, 4-(5-chloro-6-(((1S)-1-(4-fluorophenyl)propyl)oxy)-3-pyridinyl)-2-fluoro-5-methyl-N-(methylsulfonyl)benzamide] | 70.4
11 | CCc1ccc(C)cc1Oc1ncc(-c2cc(F)c(C(=O)NS(C)(=O)=O)cc2C)cc1Cl [Example 680, 4-(5-chloro-6-(2-ethyl-5-methylphenoxy)-3-pyridinyl)-2-fluoro-5-methyl-N-(methylsulfonyl)benzamide] | 66.3
12 | COc1cc(C(=O)NS(C)(=O)=O)ccc1-c1cnc(Oc2ccc(F)c(F)c2F)c(Cl)c1 [Example 357, 4-(5-chloro-6-(2,3,4-trifluorophenoxy)-3-pyridinyl)-3-methoxy-N-(methylsulfonyl)benzamide] | 88.2
13 | CC1(Oc2ncc(-c3cc(F)c(C(=O)NS(C)(=O)=O)cc3Cl)cc2Cl)CCC1 [Example 602, 5-chloro-4-(5-chloro-6-((1-methylcyclobutyl)oxy)-3-pyridinyl)-2-fluoro-N-(methylsulfonyl)benzamide] | 100
14 | Cc1cc(C(=O)NS(C)(=O)=O)c(F)cc1-c1cnc(N2CCC[C@@H]2c2cccc(C(F)(F)F)c2)c(Cl)c1 [Example 655, 4-(5-chloro-6-((2R)-2-(3-(trifluoromethyl)phenyl)-1-pyrrolidinyl)-3-pyridinyl)-2-fluoro-5-methyl-N-(methylsulfonyl)benzamide, 4-(5-chloro-6-((2S)-2-(3-(trifluoromethyl)phenyl)-1-pyrrolidinyl)-3-pyridinyl)-2-fluoro-5-methyl-N-(methylsulfonyl)benzamide] | 102

Same assay, conditions: in-vitro Nav 1.7 PX data

Row | Compound | IC50 [nM]
15 | COc1cc(C(=O)NS(C)(=O)=O)ccc1-c1cnc(Oc2ccnc(OC)c2Cl)c(Cl)c1 [Example 832, 4-(5-chloro-6-((3-chloro-2-methoxy-4-pyridinyl)oxy)-3-pyridinyl)-3-methoxy-N-(methylsulfonyl)benzamide] | 92.3
16 | COc1cc(C(=O)NS(C)(=O)=O)c(F)cc1-c1cnc(Oc2c(Cl)ccc(C)c2F)c(Cl)c1 [Example 762, 4-(5-chloro-6-(6-chloro-2-fluoro-3-methylphenoxy)-3-pyridinyl)-2-fluoro-5-methoxy-N-(methylsulfonyl)benzamide] | 75.2
17 | Cc1cc(C(=O)NS(C)(=O)=O)c(F)cc1-c1cnc(-c2ccc(Cl)c(Cl)c2)c(Cl)c1 [Example 835, 4-(5-chloro-6-(3,4-dichlorophenyl)-3-pyridinyl)-2-fluoro-5-methyl-N-(methylsulfonyl)benzamide] | 167
18 | COc1cc(Oc2ncc(-c3cc(F)c(C(=O)NS(C)(=O)=O)cc3OC)cc2Cl)c(Cl)cc1Cl [Example 716, 4-(5-chloro-6-(2,4-dichloro-5-methoxyphenoxy)-3-pyridinyl)-2-fluoro-5-methoxy-N-(methylsulfonyl)benzamide] | 91.7
19 | Cc1cc(C(=O)NS(C)(=O)=O)c(F)cc1-c1ccc2c(c1)OC(F)(F)O2 [Example 809, 4-(2,2-difluoro-1,3-benzodioxol-5-yl)-2-fluoro-5-methyl-N-(methylsulfonyl)benzamide] | 647
20 | Cc1cc(Cl)cc(Cl)c1Oc1ncc(-c2cc(F)c(C(=O)NS(C)(=O)=O)cc2OC(F)F)cc1Cl [Example 782, 4-(5-chloro-6-(2,4-dichloro-6-methylphenoxy)-3-pyridinyl)-5-(difluoromethoxy)-2-fluoro-N-(methylsulfonyl)benzamide] | 16.1
21 | CCOc1cc(C(=O)NS(C)(=O)=O)c(F)cc1-c1cnc(Oc2cccc(Cl)c2C)c(Cl)c1 [Example 779, 4-(5-chloro-6-(3-chloro-2-methylphenoxy)-3-pyridinyl)-5-ethoxy-2-fluoro-N-(methylsulfonyl)benzamide] | 94.7
22 | 4-(3-Chloro-4′-Methoxy-2′-Methyl-[2,3′-Bipyridin]-5-yl)-2-Fluoro-5-Methyl-N-(Methylsulfonyl)Benzamide [Example 839] | 12800
23 | COc1cc(C(=O)NS(C)(=O)=O)c(F)cc1-c1cnc(Oc2ccc(C)c(Cl)c2)c(Cl)c1 [Example 751, 4-(5-chloro-6-(3-chloro-4-methylphenoxy)-3-pyridinyl)-2-fluoro-5-methoxy-N-(methylsulfonyl)benzamide] | 98.3
24 | Cc1cc(Cl)cc(Cl)c1Oc1ncc(-c2ccc(C(=O)NS(C)(=O)=O)cc2Br)cc1Cl [Example 794, 3-bromo-4-(5-chloro-6-(2,4-dichloro-6-methylphenoxy)-3-pyridinyl)-N-(methylsulfonyl)benzamide] | 27.5
